Read-outs that look alike come from different tables or passages of the source.
Target: T1, androgen receptor (AR) (Homo sapiens, UniProt P10275)
T1 sequence (P10275 1-920): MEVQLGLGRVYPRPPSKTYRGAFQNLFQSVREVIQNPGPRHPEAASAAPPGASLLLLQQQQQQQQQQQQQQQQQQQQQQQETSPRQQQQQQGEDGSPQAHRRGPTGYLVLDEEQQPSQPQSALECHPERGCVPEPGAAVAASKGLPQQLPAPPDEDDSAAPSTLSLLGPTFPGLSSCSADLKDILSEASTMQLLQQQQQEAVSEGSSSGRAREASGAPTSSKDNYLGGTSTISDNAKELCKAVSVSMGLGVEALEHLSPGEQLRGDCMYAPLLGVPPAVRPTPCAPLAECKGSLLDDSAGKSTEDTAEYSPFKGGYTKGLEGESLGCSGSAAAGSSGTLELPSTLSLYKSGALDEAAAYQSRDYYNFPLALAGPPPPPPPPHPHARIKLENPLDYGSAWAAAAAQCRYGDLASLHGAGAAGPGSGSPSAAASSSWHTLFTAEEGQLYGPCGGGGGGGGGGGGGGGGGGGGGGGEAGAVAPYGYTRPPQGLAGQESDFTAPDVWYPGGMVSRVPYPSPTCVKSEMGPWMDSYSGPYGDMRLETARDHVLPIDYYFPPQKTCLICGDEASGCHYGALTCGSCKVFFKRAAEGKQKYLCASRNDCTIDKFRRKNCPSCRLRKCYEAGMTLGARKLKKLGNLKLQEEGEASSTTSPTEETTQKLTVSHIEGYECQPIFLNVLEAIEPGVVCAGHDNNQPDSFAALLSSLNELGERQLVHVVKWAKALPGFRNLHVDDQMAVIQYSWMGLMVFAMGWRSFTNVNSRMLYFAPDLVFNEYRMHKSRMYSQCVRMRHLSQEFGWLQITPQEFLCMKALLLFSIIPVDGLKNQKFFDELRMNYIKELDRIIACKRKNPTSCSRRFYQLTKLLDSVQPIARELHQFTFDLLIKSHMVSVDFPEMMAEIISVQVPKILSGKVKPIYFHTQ
Experiment: Degradation of androgen receptor (AR) protein in VCaP cells by ELISA
Type: cell-based
Settings: for Dmax: VCaP

[1] = AR degradation, VCaP cells, 16 h, ELISA, Table 3-1, read-out: DC50
[2] = AR degradation, VCaP cells, 16 h, ELISA, Table 3-1, read-out: Dmax (%)
[3] = AR degradation, VCaP cells, 16 h, ELISA, Table 3-2, read-out: DC50
[4] = AR degradation, VCaP cells, 16 h, ELISA, Table 3-2, read-out: Dmax (%)

Structure (SMILES)	DC50 [1] [nM]	Dmax [2] [%]	also measured
N#Cc1ccc(OC2CCC(NC(=O)c3cnc(N4C[C@H]5CC[C@@H](C4)N5C[C@H]4[C@@H]5CN(c6cc7c(cc6F)C(=O)N(C6CCC(=O)NC6=O)C7=O)C[C@@H]54)cn3)CC2)cc1Cl (stereo partly drawn) [Compound 240]	–	–	DC50: 10 to 100 nM; Dmax: 60 to 80%
C[C@H]1CN(C[C@@H]2[C@H]3CN(c4cc5c(cc4F)C(=O)N(C4CCC(=O)NC4=O)C5=O)C[C@@H]23)CCN1c1cnc(C(=O)N[C@H]2CC[C@H](Oc3ccc(C#N)c(Cl)c3)CC2)cn1 (stereo partly drawn) [Compound 171]	10 to 100	> 80	–
N#Cc1ccc(OC2CCC(NC(=O)c3ccc(N4CCN(CC5[C@H]6CN(c7cc8c(cc7F)C(=O)N(C7CCC(=O)NC7=O)C8=O)C[C@@H]56)CC4)nn3)CC2)cc1C(F)(F)F (stereo partly drawn) [Compound 95]	–	–	Dmax (%): +++ (key: ++++: >80%; +++: 80%-60%; ++: 60%-40%; +: <40%); DC50 (read-out: DC50): 10 to 100 nM
N#Cc1ccc(OC2CCC(NC(=O)c3cnc(N4CCN(CC5[C@H]6CN(c7cc8c(cc7F)C(=O)N(C7CCC(=O)NC7=O)C8=O)C[C@@H]56)CC4)nc3)CC2)cc1Cl (stereo partly drawn) [Compound 128]	–	–	Dmax (%): +++ (key: ++++: >80%; +++: 80%-60%; ++: 60%-40%; +: <40%); DC50 (read-out: DC50): 10 to 100 nM
CC1(C)[C@H](Oc2ccc(C#N)c(Cl)c2)C(C)(C)[C@H]1N1Cc2nc(C#CC3CC(N4CC5CN(c6ccc7c(c6)C(=O)N(C6CCC(=O)NC6=O)C7=O)CC5C4)C3)ccc2C1=O (stereo partly drawn) [Compound 359, 2-Chloro-4-((1r,3r)-3-(2-((3-(5-(2-(2,6-dioxopiperidin-3-yl)-1,3-dioxoisoindolin-5-yl)hexahydropyrrolo[3,4-c]pyrrol-2(1H)-yl)cyclobutyl)ethynyl)-5-oxo-5,7-dihydro-6H-pyrrolo[3,4-b]pyridin-6-yl)-2,2,4,4-tetramethylcyclobutoxy)benzonitrile]	10 to 100	–	–
N#Cc1ccc(OC2CCC(NC(=O)c3cnc(N4CCN(CC5[C@H]6CN(c7cc8c(cc7F)C(=O)N(C7CCC(=O)NC7=O)C8=O)C[C@@H]56)CC4)cn3)CC2)cc1C(F)(F)F (stereo partly drawn) [Compound 94]	–	–	Dmax (%): +++ (key: ++++: >80%; +++: 80%-60%; ++: 60%-40%; +: <40%); DC50 (read-out: DC50): 10 to 100 nM
CC1(C)[C@H](Oc2ccc(C#N)c(Cl)c2)C(C)(C)[C@H]1N1Cc2nc(C#C[C@H]3C[C@H](N4CCN(c5ccc6c(c5)C(=O)N(C5CCC(=O)NC5=O)C6=O)CC4)C3)cnc2C1=O (stereo partly drawn) [Compound 390]	–	–	DC50 [3]: < 10 nM; Dmax [4]: 60 to 80%
N#Cc1ccc(OC2CCC(NC(=O)c3cn(C4CCC(CN5CCC6(CC5)CN(c5cc7c(cc5F)C(=O)N(C5CCC(=O)NC5=O)C7=O)C6)CC4)cn3)CC2)cc1Cl [Compound 112, N-((1r,4R)-4-(3-chloro-4-cyanophenoxy)cyclohexyl)-1-((1r,4R)-4-((2-(2,6-dioxopiperidin-3-yl)-6-fluoro-1,3-dioxoisoindolin-5-yl)-2,7-diazaspiro[3.5]nonan-7-yl)methyl)cyclohexyl)-1H-imidazole-4-carboxamide]	–	–	Dmax (%): + (key: ++++: >80%; +++: 80%-60%; ++: 60%-40%; +: <40%); DC50 (read-out: DC50): > 300 nM
N#Cc1ccc(O[C@H]2CC[C@H](NC(=O)c3ccc(N4CCC5(CCN(C6CCN(c7cc8c(cc7F)C(=O)N(C7CCC(=O)NC7=O)C8=O)CC6)C5)C4)nn3)CC2)cc1Cl (stereo partly drawn) [Compound 166, N-((1r,4r)-4-(3-chloro-4-cyanophenoxy)cyclohexyl)-6-(7-(1-(2-(2,6-dioxopiperidin-3-yl)-6-fluoro-1,3-dioxoisoindolin-5-yl)piperidine-4-yl)-2,7-diazaspiro[4.4]nonan-2-yl)pyridazine-3-formamide]	< 10	> 80	–
N#Cc1ccc(O[C@H]2CC[C@H](NC(=O)c3ccc(N4CCC(CN5CCC(Oc6ccc7c(c6)C(=O)N(C6CCC(=O)NC6=O)C7=O)CC5)CC4)nn3)CC2)cc1Cl (stereo partly drawn) [Compound 147]	10 to 100	60 to 80	–
CC1(C)[C@H](Oc2ccc(C#N)c(Cl)c2)C(C)(C)[C@H]1N1Cc2nc(C#CC3CCC(N4CC5CC4CN5c4cc5c(cc4F)C(=O)N(C4CCC(=O)NC4=O)C5=O)CC3)cnc2C1=O (stereo partly drawn) [Compound 387]	–	–	Dmax (%) (AR degradation, VCaP cells, 16 h, ELISA, Table 3-2): + (<40%); DC50 [3]: > 300 nM
N#Cc1ccc(O[C@H]2CC[C@H](NC(=O)c3ccc(N4CC5(CCN(C6CCN(c7cc8c(cc7F)C(=O)N(C7CCC(=O)NC7=O)C8=O)CC6)CC5)C4)nn3)CC2)cc1Cl (stereo partly drawn) [Compound 97, N-((1r,4r)-4-(3-chloro-4-cyanophenoxy)cyclohexyl)-6-(7-(1-(2-(2,6-dioxopiperidin-3-yl)-6-fluoro-1,3-dioxoisoindolin-5-yl)piperidine-4-yl)-2,7-diazaspiro[3.5]nonan-2-yl)pyridazine-3-carboxamide]	< 10	–	Dmax: > 80%
CC1(C)[C@H](Oc2ccc(C#N)c(Br)c2)C(C)(C)[C@H]1N1Cc2nc(C#C[C@H]3CC[C@H](N4CCN(c5cc6c(cc5F)C(=O)N(C5CCC(=O)NC5=O)C6=O)CC4)CC3)ccc2C1=O (stereo partly drawn) [Compound 397]	–	–	DC50 [3]: 10 to 100 nM; Dmax [4]: > 80%

Second part, led by results:

DC50 [1] [nM]	Dmax [2] [%]	Structure (SMILES)	also measured
< 10	> 80	N#Cc1ccc(O[C@H]2CC[C@H](NC(=O)c3ccc(N4CC5(CCN(CC6CCN(c7ccc8c(c7)C(=O)N(C7CCC(=O)NC7=O)C8=O)CC6)CC5)C4)cc3)CC2)cc1Cl (stereo partly drawn) [Compound 194, N-((1r,4r)-4-(3-chloro-4-cyanophenoxy)cyclohexyl)-4-(7-((1-(2-(2,6-dioxopiperidin-3-yl)-1,3-dioxoisoindolin-5-yl)piperidine-4-yl)methyl)-2,7-diazaspiro[3.5]nonan-2-yl)benzamide]	–
< 10	> 80	CC1(C)[C@H](Oc2ccc(C#N)c(Cl)c2)C(C)(C)[C@H]1N1Cc2nc(C#C[C@H]3C[C@H](N4CCN(c5ccc6c(c5)C(=O)N(C5CCC(=O)NC5=O)C6=O)CC4)C3)ccc2C1=O (stereo partly drawn) [Compound 355]	–
< 10	> 80	N#Cc1ccc(O[C@H]2CC[C@H](NC(=O)c3cnc(N4CCC(CN5CCC6(CC5)CN(c5cc7c(cc5F)C(=O)N(C5CCC(=O)NC5=O)C7=O)C6)CC4)nc3)CC2)cc1Cl (stereo partly drawn) [Compound 268]	–
< 10	> 80	N#Cc1ccc(O[C@H]2CC[C@H](NC(=O)c3cnc(N4CCC5(CN(CC6CCN(c7cc8c(cc7F)C(=O)N(C7CCC(=O)NC7=O)C8=O)CC6)C5)C4)cn3)CC2)cc1Cl (stereo partly drawn) [Compound 189, N-((1r,4r)-4-(3-chloro-4-cyanophenoxy)cyclohexyl)-5-(2-((1-(2-(2,6-dioxopiperidin-3-yl)-6-fluoro-1,3-dioxoisoindolin-5-yl)piperidine-4-yl)methyl)-2,6-diazaspiro[3.4]octan-6-yl)pyrazine-2-carboxamide]	–
10 to 100	60 to 80	CC1(C)[C@H](Oc2ccc(C#N)c(Cl)c2)C(C)(C)[C@H]1N1Cc2nc(C#C[C@H]3CC[C@H](N4CCN(c5cc6c(cc5F)C(=O)N(C5CCC(=O)NC5=O)C6=O)CC4)CC3)cnc2C1=O (stereo partly drawn) [Compound 380]	–
10 to 100	60 to 80	C[C@@H]1CN(C[C@@H]2[C@H]3CN(c4cc5c(cc4F)C(=O)N(C4CCC(=O)NC4=O)C5=O)C[C@@H]23)CCN1c1cnc(C(=O)N[C@H]2CC[C@H](Oc3ccc(C#N)c(Cl)c3)CC2)cn1 (stereo partly drawn) [Compound 264, N-((1r,4R)-4-(3-chloro-4-cyanophenoxy)cyclohexyl)-5-((2R)-4-((1R,5S,6s)-3-(2-(2,6-dioxopiperidin-3-yl)-6-fluoro-1,3-dioxoisoindolin-5-yl)-3-azabicyclo[3.1.0]n-hexane-6-yl)methyl-2-methylpiperazin-1-yl)pyrazine-2-carboxamide]	–
< 10	> 80	N#Cc1ccc(O[C@H]2CC[C@H](NC(=O)c3cnc(N4CCC(CN5CCC6(CC5)CN(c5cc7c(cc5F)C(=O)N(C5CCC(=O)NC5=O)C7=O)C6)CC4)cn3)CC2)cc1Cl (stereo partly drawn) [Compound 233]	–
